Experimental data: patent EP4696688A1, “BENZO-FUSED RING COMPOUND INHIBITOR, AND PREPARATION METHOD THEREFOR AND USE THEREOF” (Shanghai Hansoh Biomedical Co., Ltd., priority 2023, dated 2024)

Assays:
human CYP11B2 = biological target: T1, human CYP11B2 (Homo sapiens, UniProt P19099); assay: G-402 cell enzyme experiment, CYP11B2 (aldosterone product, HTRF); format: cell-based; settings: G-402 cells stably expressing human CYP11B2, 1 µM 11-deoxycorticosterone, 16 h
T1 construct: The main elements of an expression plasmid include ORF of human CYP11B1 or human CYP11B2; expressed in transfected cells
T1 sequence (P19099 25-503): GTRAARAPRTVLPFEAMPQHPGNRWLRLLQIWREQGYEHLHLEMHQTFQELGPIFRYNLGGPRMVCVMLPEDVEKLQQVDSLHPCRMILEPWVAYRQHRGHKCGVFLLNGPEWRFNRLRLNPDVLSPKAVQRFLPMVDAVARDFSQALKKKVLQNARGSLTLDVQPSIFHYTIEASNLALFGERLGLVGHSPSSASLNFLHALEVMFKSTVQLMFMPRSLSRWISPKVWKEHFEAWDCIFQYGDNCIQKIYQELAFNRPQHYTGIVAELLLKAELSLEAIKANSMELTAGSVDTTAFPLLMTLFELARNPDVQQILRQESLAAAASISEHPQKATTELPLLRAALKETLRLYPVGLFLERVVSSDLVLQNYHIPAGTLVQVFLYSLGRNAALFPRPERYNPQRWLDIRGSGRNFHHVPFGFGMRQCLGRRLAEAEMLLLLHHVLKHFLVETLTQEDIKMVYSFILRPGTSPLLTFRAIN
Summary of the method: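 Stably transfected G-402 cells in DMEM/F12 with 2.5% charcoal-treated FBS, incubated 16 h with 1 µM 11-deoxycorticosterone (CYP11B2, aldosterone product) or 1 µM 11-deoxycortisol (CYP11B1, cortisol product). Supernatant product measured by HTRF; EC50 from 4-parameter MMF sigmoidal fit, minimum defined by empty-plasmid cells.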

[1] = Pharmacokinetic determination in rats; format: in vivo; settings: rat, male SD rats, plasma, oral administration (PO) 5 mg/kg
Experimental: SD rats were used as test animals to study the pharmacokinetic behavior of the compounds of the present invention in rats (plasma) after oral administration.
3 SD rats per group, male.
Formulation of drug for oral administration: 0.5% CMC-Na (1% Tween 80)
5 g of sodium carboxymethyl cellulose (CMC-Na, viscosity: 800-1200 Cps) was weighed and dissolved in 1000 mL of purified water, and 10 g of Tween 80 was added. These materials were uniformly mixed to form a clear solution.
The example compounds were weighed and dissolved in the solution and the mixture was shaken well and ultrasonicated for 15 min to obtain a colorless clear solution with a concentration of 0.5 mg/mL. Formulation of drug for intravenous administration: 5% DMSO + 10% Solutol HS15 + 85% PBS
After overnight fasting, 3 male SD rats per group were administered orally (PO) at a dose of 5 mg/kg with an administration volume of 10 mL/kg. […]
0.2 mL of blood was collected from the jugular vein of the experimental animals before administration and at 0.25 h, 0.5 h, 1.0 h, 2.0 h, 4.0 h, 6.0 h, 8.0 h, and 24.0 h after administration and placed in an EDTA-2K test tube, and the test tube was centrifuged at 8000 rpm for 6 min at 4°C to separate the plasma, which was stored at -80°C; and the animals were fed 4 h after administration.
3 Experimental results: The final determination results were obtained by using LCMS/MS method.

human CYP11B1 = biological target: T2, human CYP11B1 (Homo sapiens, UniProt P15538); assay: G-402 cell enzyme experiment, CYP11B1 (cortisol product, HTRF), selectivity versus CYP11B2; format: cell-based; settings: human selective factor: ratio of CYP11B1 EC50 to CYP11B2 EC50; G-402 cells
T2 construct: The main elements of an expression plasmid include ORF of human CYP11B1 or human CYP11B2; expressed in transfected cells
T2 sequence (P15538 25-503): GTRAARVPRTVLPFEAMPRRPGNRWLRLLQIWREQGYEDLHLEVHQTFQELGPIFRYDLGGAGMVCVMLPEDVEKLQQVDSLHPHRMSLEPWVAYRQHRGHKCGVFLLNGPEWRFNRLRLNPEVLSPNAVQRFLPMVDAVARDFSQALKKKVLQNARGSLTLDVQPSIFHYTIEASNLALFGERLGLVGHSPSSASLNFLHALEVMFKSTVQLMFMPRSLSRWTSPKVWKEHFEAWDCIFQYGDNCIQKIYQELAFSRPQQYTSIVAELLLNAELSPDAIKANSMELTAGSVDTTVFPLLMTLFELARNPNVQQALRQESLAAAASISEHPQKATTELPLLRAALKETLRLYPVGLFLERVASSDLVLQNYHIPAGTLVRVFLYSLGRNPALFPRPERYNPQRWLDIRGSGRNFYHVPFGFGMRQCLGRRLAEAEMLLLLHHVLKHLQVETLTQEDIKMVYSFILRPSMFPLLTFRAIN

## Cn1cc(C(=O)N2CCC3(CC2)CN(c2cncc(-c4ccc5c(c4)sc(=O)n5C)c2)C3)cn1 [Example 103, 3-methyl-6-(5-(7-(1-methyl-1H-pyrazole-4-carbonyl)-2,7-diazaspiro[3.5]nonan-2-yl)pyridin-3-yl)benzo[d]thiazol-2(3H)-one]
Human CYP11B2
  EC50: 26 nM
[1]
  AUC(0-inf): 24700 ng·h/mL
  AUC(0-t): 24700 ng·h/mL
  Cmax: 2700 ng/mL
  Tmax: 4 h
  half-life: 1.8 h
[1]; read-out: MRT0-∞
  MRT inf: 5.6 h
Human CYP11B1
  hsF: 1292x
